± gives the expanded uncertainty stated by the source.
Assay: mn = molality of the nth substance listed, in mol/kg
Details: Liquid; for viscosity: Vibrating wire viscometry; for mass density: Vibrating tube method

[Cl-].[Na+] [sodium chloride] + O
Details	mass density [kg/m3]	viscosity [mPa·s]
274.65 K, 1400 kPa, m1 = 0.77	–	1.748 ± 0.053
274.65 K, 15300 kPa, m1 = 0.77	–	1.718 ± 0.052
274.65 K, 30200 kPa, m1 = 0.77	–	1.704 ± 0.052
274.65 K, 50100 kPa, m1 = 0.77	–	1.7 ± 0.052
274.83 K, 15210 kPa, m1 = 0.77	1039.38 ± 0.69	–
274.83 K, 30120 kPa, m1 = 0.77	1045.95 ± 0.7	–
274.83 K, 49950 kPa, m1 = 0.77	1054.41 ± 0.71	–
274.83 K, 69810 kPa, m1 = 0.77	1062.53 ± 0.73	–
274.83 K, 99820 kPa, m1 = 0.77	1074.13 ± 0.78	–
274.95 K, 1340 kPa, m1 = 2.5	1098.36 ± 0.87	–
274.95 K, 15260 kPa, m1 = 2.5	1103.81 ± 0.88	–
274.95 K, 30190 kPa, m1 = 2.5	1109.5 ± 0.89	–
274.95 K, 50040 kPa, m1 = 2.5	1116.83 ± 0.92	–
274.95 K, 69930 kPa, m1 = 2.5	1123.92 ± 0.97	–
274.95 K, 99990 kPa, m1 = 2.5	1134.12 ± 1.1	–
296.19 K, 1330 kPa, m1 = 2.5	1090.47 ± 0.85	–
296.19 K, 15240 kPa, m1 = 2.5	1095.73 ± 0.86	–
296.19 K, 30160 kPa, m1 = 2.5	1101.16 ± 0.87	–
296.19 K, 50020 kPa, m1 = 2.5	1108.18 ± 0.92	–
296.19 K, 69880 kPa, m1 = 2.5	1115.02 ± 0.96	–
296.19 K, 99980 kPa, m1 = 2.5	1124.82 ± 1	–
296.22 K, 1380 kPa, m1 = 0.77	1028.25 ± 0.69	–
296.22 K, 15220 kPa, m1 = 0.77	1034.12 ± 0.7	–
296.22 K, 49930 kPa, m1 = 0.77	1048.04 ± 0.71	–
296.22 K, 69810 kPa, m1 = 0.77	1055.61 ± 0.72	–
296.22 K, 99840 kPa, m1 = 0.77	1066.51 ± 0.76	–
323.3 K, 1380 kPa, m1 = 2.5	1077.94 ± 0.83	–
323.3 K, 15290 kPa, m1 = 2.5	1083.2 ± 0.84	–
323.3 K, 30220 kPa, m1 = 2.5	1088.58 ± 0.85	–
323.3 K, 50060 kPa, m1 = 2.5	1095.53 ± 0.91	–
323.3 K, 69950 kPa, m1 = 2.5	1102.24 ± 0.94	–
323.3 K, 100010 kPa, m1 = 2.5	1111.99 ± 1	–
323.33 K, 1340 kPa, m1 = 0.77	1017.8 ± 0.69	–
323.33 K, 15260 kPa, m1 = 0.77	1023.47 ± 0.69	–
323.33 K, 30160 kPa, m1 = 0.77	1029.36 ± 0.7	–
323.33 K, 69840 kPa, m1 = 0.77	1044.3 ± 0.71	–
323.33 K, 99890 kPa, m1 = 0.77	1054.9 ± 0.74	–
348.21 K, 1360 kPa, m1 = 2.5	1064.12 ± 0.82	–
348.21 K, 1380 kPa, m1 = 0.77	1004.37 ± 0.68	–
348.21 K, 15260 kPa, m1 = 0.77	1010.15 ± 0.68	–
348.21 K, 15270 kPa, m1 = 2.5	1069.47 ± 0.83	–
348.21 K, 30180 kPa, m1 = 0.77	1016.18 ± 0.69	–
348.21 K, 30200 kPa, m1 = 2.5	1075.01 ± 0.84	–
348.21 K, 50000 kPa, m1 = 0.77	1023.83 ± 0.69	–
348.21 K, 50060 kPa, m1 = 2.5	1082.15 ± 0.85	–
348.21 K, 69880 kPa, m1 = 0.77	1031.26 ± 0.69	–
348.21 K, 69960 kPa, m1 = 2.5	1089.02 ± 0.94	–
348.21 K, 99920 kPa, m1 = 0.77	1041.89 ± 0.72	–
348.21 K, 100020 kPa, m1 = 2.5	1098.91 ± 1	–
348.34 K, 1400 kPa, m1 = 0.77	–	0.412 ± 0.013
348.34 K, 15300 kPa, m1 = 0.77	–	0.416 ± 0.013
348.34 K, 30200 kPa, m1 = 0.77	–	0.421 ± 0.014
348.34 K, 50000 kPa, m1 = 0.77	–	0.429 ± 0.014
348.34 K, 69900 kPa, m1 = 0.77	–	0.433 ± 0.014
373.22 K, 1380 kPa, m1 = 2.5	1047.69 ± 0.81	–
373.22 K, 15310 kPa, m1 = 2.5	1053.49 ± 0.82	–
373.22 K, 30230 kPa, m1 = 2.5	1059.36 ± 0.83	–
373.22 K, 50090 kPa, m1 = 2.5	1066.79 ± 0.84	–
373.22 K, 69960 kPa, m1 = 2.5	1073.94 ± 0.86	–
373.22 K, 100040 kPa, m1 = 2.5	1084.13 ± 0.98	–
373.25 K, 1400 kPa, m1 = 0.77	988.09 ± 0.67	–
373.25 K, 15310 kPa, m1 = 0.77	994.18 ± 0.67	–
373.25 K, 30220 kPa, m1 = 0.77	1000.44 ± 0.67	–
373.25 K, 50060 kPa, m1 = 0.77	1008.5 ± 0.68	–
373.25 K, 69930 kPa, m1 = 0.77	1016.2 ± 0.69	–
373.25 K, 99960 kPa, m1 = 0.77	1027.15 ± 0.69	–
373.31 K, 1400 kPa, m1 = 0.77	–	0.31 ± 0.01
373.31 K, 30200 kPa, m1 = 0.77	–	0.318 ± 0.011
373.31 K, 50000 kPa, m1 = 0.77	–	0.323 ± 0.011
373.31 K, 69900 kPa, m1 = 0.77	–	0.329 ± 0.011
373.31 K, 100000 kPa, m1 = 0.77	–	0.338 ± 0.011
398.18 K, 1400 kPa, m1 = 0.77	–	0.247 ± 0.009
398.18 K, 15300 kPa, m1 = 0.77	–	0.251 ± 0.009
398.18 K, 30200 kPa, m1 = 0.77	–	0.256 ± 0.009
398.18 K, 50100 kPa, m1 = 0.77	–	0.26 ± 0.009
398.18 K, 70000 kPa, m1 = 0.77	–	0.265 ± 0.009
398.18 K, 100000 kPa, m1 = 0.77	–	0.273 ± 0.009
398.29 K, 1390 kPa, m1 = 2.5	1029.58 ± 0.94	–
398.29 K, 15300 kPa, m1 = 2.5	1035.58 ± 0.94	–
398.29 K, 30230 kPa, m1 = 2.5	1041.92 ± 0.93	–
398.29 K, 50080 kPa, m1 = 2.5	1049.89 ± 0.93	–
398.29 K, 69980 kPa, m1 = 2.5	1057.41 ± 0.94	–
398.29 K, 100050 kPa, m1 = 2.5	1068.15 ± 0.97	–
398.81 K, 1460 kPa, m1 = 0.77	969.16 ± 0.64	–
398.81 K, 15370 kPa, m1 = 0.77	975.7 ± 0.65	–
398.81 K, 30260 kPa, m1 = 0.77	982.49 ± 0.65	–
398.81 K, 50080 kPa, m1 = 0.77	991.06 ± 0.66	–
398.81 K, 69950 kPa, m1 = 0.77	999.13 ± 0.66	–
398.81 K, 99990 kPa, m1 = 0.77	1010.69 ± 0.67	–
423.31 K, 15300 kPa, m1 = 0.77	–	0.206 ± 0.008
423.31 K, 30200 kPa, m1 = 0.77	–	0.212 ± 0.008
423.31 K, 50100 kPa, m1 = 0.77	–	0.216 ± 0.008
423.31 K, 70000 kPa, m1 = 0.77	–	0.22 ± 0.008
423.31 K, 100000 kPa, m1 = 0.77	–	0.228 ± 0.008
423.62 K, 1410 kPa, m1 = 2.5	1009.24 ± 0.98	–
423.62 K, 15330 kPa, m1 = 2.5	1015.81 ± 0.97	–
423.62 K, 30250 kPa, m1 = 2.5	1022.75 ± 0.81	–
423.62 K, 50100 kPa, m1 = 2.5	1031.25 ± 0.81	–
423.62 K, 69990 kPa, m1 = 2.5	1039.38 ± 0.82	–
423.62 K, 100050 kPa, m1 = 2.5	1050.77 ± 0.96	–
423.73 K, 1450 kPa, m1 = 0.77	947.66 ± 0.63	–
423.73 K, 15370 kPa, m1 = 0.77	954.86 ± 0.64	–
423.73 K, 30270 kPa, m1 = 0.77	962.29 ± 0.66	–
423.73 K, 50110 kPa, m1 = 0.77	971.57 ± 0.66	–
423.73 K, 69960 kPa, m1 = 0.77	980.32 ± 0.67	–
423.73 K, 100000 kPa, m1 = 0.77	992.59 ± 0.66	–
448.27 K, 30300 kPa, m1 = 0.77	–	0.181 ± 0.007
448.27 K, 50100 kPa, m1 = 0.77	–	0.185 ± 0.007
448.27 K, 70000 kPa, m1 = 0.77	–	0.19 ± 0.007
448.27 K, 100000 kPa, m1 = 0.77	–	0.197 ± 0.007
448.85 K, 1410 kPa, m1 = 2.5	987.39 ± 1	–
448.85 K, 15330 kPa, m1 = 2.5	994.66 ± 0.98	–
448.85 K, 30260 kPa, m1 = 2.5	1002.41 ± 0.97	–
448.85 K, 50110 kPa, m1 = 2.5	1011.56 ± 0.8	–
448.97 K, 1460 kPa, m1 = 0.77	923.83 ± 0.62	–
448.97 K, 15380 kPa, m1 = 0.77	932.02 ± 0.63	–
448.97 K, 30290 kPa, m1 = 0.77	940.31 ± 0.63	–
448.97 K, 50120 kPa, m1 = 0.77	950.53 ± 0.66	–
448.97 K, 69980 kPa, m1 = 0.77	960.05 ± 0.67	–
448.97 K, 100000 kPa, m1 = 0.77	973.43 ± 0.66	–
